Assay results from patent US12146871B2, “Method and device for physicochemical characterization of materials” (THE SOLUBILITY COMPANY OY, priority 2016, dated 2024).

Test: partition coefficient from intrinsic solubility in octanol and water by image analysis of individual crystals
Assay type: physicochemical
Conditions: octanol and water (separate solubilities); from aqueous solubility of the unionized form (pH 2-3) and solubility in octanol
Procedure: A solubility-pH profile was performed in aqueous buffers over the physiologically relevant range of pH 2-9. […] Additionally, using logP, pKa and pH data, the logD value was determined as a function of pH. All parameters determined using the present method correlated with theory and literature data. Thus, by only observing and characterizing one variable, i.e. the particle(s) size decrease of an individual crystal, it is possible to mine, in a high-content analysis (HCA) manner, a full physicochemical profile of six fundamental material characteristics for a material. Analysis device was constructed as a flow-through device consisting of two resistant flat metal plates. In the lower thereof a 1 mm hole was drilled as an outlet channel. The top metal plate hosted the inlet channel and was prepared with a glass window to facilitate detecting. A 0.2 μm inorganic membrane filter (Whatman nuclepore) was placed on the bottom plate and the particle(s) to be analyzed placed on top of the portion of the membrane filter being above the outlet channel. […] Equilibrium solubility, S was calculated from image analysis data based on a reorganized single-particle diffusion layer model dissolution rate equation, where S0 is the intrinsic solubility of the unionized form. Further, based on intrinsic solubility data in octanol and water the partition coefficient (logP) was determined according to, […]

logP: 4.1
Compound: COc1ccc2c(c1)c(CC(=O)O)c(C)n2C(=O)c1ccc(Cl)cc1 [indomethacin]
